Results from US7223773B2, “4-oxoquinolizine antibacterial agent having 2-pyridone skeleton as partial structure” (Salo Pharmaceutical Co., Ltd., priority 2001, dated 2007).
Converted amounts (≈) assume the structure as drawn.

Key:
Assay type in all cases: cell-based
[1] = tested on: Staphylococcus aureus Clin-211(MRSA); assay: in vitro antibacterial activity, agar plate dilution method (MIC); conditions: read-out: Antimicrobial spectrum MIC
Protocol: (§1) The in vitro antibacterial activities of the compounds provided by the present invention were tested by a standard method of Chemotherapy Society of Japan, i.e. an agar plate dilution method disclosed in CHEMOTHERAPY Vol. 29, pages 76–79, 1981, and the activities of them on anaerobic bacteria were tested by a method disclosed in CHEMOTHERAPY Vol. 27, 559–590, 1979. The results were shown in terms of the minimum inhibition concentration (MIC, μg/ml) for the growth of the bacteria.

[2] = tested on: Enterococcus faecalis CSJ 1212; assay: as above; conditions: CSJ1212, read-out: Antimicrobial spectrum MIC
Protocol: as §1

[3] = tested on: Enterococcus faecalis RIMD 3116001; assay: as above; conditions: RIMD3116001, read-out: Antimicrobial spectrum MIC
Protocol: as §1

[4] = tested on: Haemophilus influenzae IID 984; assay: as above; conditions: IID984, read-out: Antimicrobial spectrum MIC
Protocol: as §1

[5] = tested on: Bacillus subtilis JCM 2499; assay: as above; conditions: JCM2499, read-out: Antimicrobial spectrum MIC
Protocol: as §1

[6] = tested on: Escherichia coli IFO 12734; assay: as above; conditions: IFO12734, read-out: Antimicrobial spectrum MIC
Protocol: as §1

[7] = tested on: Staphylococcus aureus IID 803(Smith); assay: as above; conditions: IID803, read-out: Antimicrobial spectrum MIC
Protocol: as §1

[8] = tested on: Staphylococcus epidermidis IFO 12993; assay: as above; conditions: IFO12993, read-out: Antimicrobial spectrum MIC
Protocol: as §1

[9] = tested on: Staphylococcus aureus IFO 13276; assay: as above; conditions: IFO13276, read-out: Antimicrobial spectrum MIC
Protocol: as §1

[10] = tested on: Klebsiella pneumoniae IID 865; assay: as above; conditions: IID865, read-out: Antimicrobial spectrum MIC
Protocol: as §1

[11] = tested on: Pseudomonas aeruginosa CSJ 1853; assay: as above; conditions: CSJ1853, read-out: Antimicrobial spectrum MIC
Protocol: as §1

[12] = tested on: Branhamella catarrhalis IID 5233; assay: as above; conditions: Moraxella catarrhalis, IID5233, read-out: Antimicrobial spectrum MIC
Protocol: as §1

[13] = tested on: Staphylococcus aureus JCM 2874; assay: as above; conditions: JCM2874, read-out: Antimicrobial spectrum MIC
Protocol: as §1

[14] = tested on: Micrococcus luteus KI 3122; assay: as above; conditions: KI3122, read-out: Antimicrobial spectrum MIC
Protocol: as §1

[15] = tested on: Streptococcus pneumoniae IID 553; assay: as above; conditions: IID553, read-out: Antimicrobial spectrum MIC
Protocol: as §1

[16] = tested on: Bacteroides fragilis GAI 0675; assay: in vitro antibacterial activity on anaerobic bacteria (MIC); conditions: GAI0675; Bacteroides fragilis GAI 0675, anaerobic; read-out: Antimicrobial spectrum MIC
Protocol: as §1

[17] = tested on: Propionibacterium acnes JCM 6425; assay: as above; conditions: Cutibacterium acnes, JCM6425; Propionibacterium acnes JCM 6425, anaerobic; read-out: Antimicrobial spectrum MIC
Protocol: as §1

[18] = tested on: Bacteroides thetaiotaomicron ATCC 29741; assay: as above; conditions: ATCC29741; Bacteroides thetaiotaomicron ATCC 29741, anaerobic; read-out: Antimicrobial spectrum MIC
Protocol: as §1

| SMILES | MIC [1] | MIC [2] | MIC [3] | MIC [4] | MIC [5] | MIC [6] | MIC [7] | MIC [8] | MIC [9] | MIC [10] | MIC [11] | MIC [12] | MIC [13] | MIC [14] | MIC [15] | MIC [16] | MIC [17] | MIC [18] |
| --- | --- | --- | --- | --- | --- | --- | --- | --- | --- | --- | --- | --- | --- | --- | --- | --- | --- | --- |
| Cc1c(-c2ccc(CN)cc2)ccn2c(=O)c(C(=O)O)cc(C3CC3)c12 [Example 24, 8-(4-aminomethylphenyl)-1-cyclopropyl-9-methyl-4-oxo-4H-quinolizine-3-carboxylic acid] | 0.5 µg/mL (≈ 1.44 µM) | 0.25 µg/mL (≈ 0.718 µM) | 0.25 µg/mL (≈ 0.718 µM) | 0.016 µg/mL (≈ 0.0459 µM) | 0.016 µg/mL (≈ 0.0459 µM) | 0.063 µg/mL (≈ 0.181 µM) | 0.031 µg/mL (≈ 0.089 µM) | 0.063 µg/mL (≈ 0.181 µM) | 0.031 µg/mL (≈ 0.089 µM) | 0.008 µg/mL (≈ 0.023 µM) | 0.5 µg/mL (≈ 1.44 µM) | 0.063 µg/mL (≈ 0.181 µM) | 0.031 µg/mL (≈ 0.089 µM) | 0.5 µg/mL (≈ 1.44 µM) | 0.125 µg/mL (≈ 0.359 µM) | 0.25 µg/mL (≈ 0.718 µM) | 0.125 µg/mL (≈ 0.359 µM) | 0.5 µg/mL (≈ 1.44 µM) |
| Cc1c(-c2cccc(N)c2)ccn2c(=O)c(C(=O)O)cc(C3CC3)c12 [Example 26, 8-(3-aminophenyl)-1-cyclopropyl-9-methyl-4-oxo-4H-quinolizine-3-carboxylic acid] | 0.125 µg/mL (≈ 0.374 µM) | 0.125 µg/mL (≈ 0.374 µM) | 0.25 µg/mL (≈ 0.748 µM) | 0.016 µg/mL (≈ 0.0479 µM) | ≤ 0.004 µg/mL | 0.125 µg/mL (≈ 0.374 µM) | 0.008 µg/mL (≈ 0.0239 µM) | 0.016 µg/mL (≈ 0.0479 µM) | 0.008 µg/mL (≈ 0.0239 µM) | 0.008 µg/mL (≈ 0.0239 µM) | 0.25 µg/mL (≈ 0.748 µM) | 0.016 µg/mL (≈ 0.0479 µM) | 0.008 µg/mL (≈ 0.0239 µM) | 0.125 µg/mL (≈ 0.374 µM) | 0.25 µg/mL (≈ 0.748 µM) | 0.125 µg/mL (≈ 0.374 µM) | 0.063 µg/mL (≈ 0.188 µM) | 0.25 µg/mL (≈ 0.748 µM) |
| Cc1c(-c2ccc(N)cc2)ccn2c(=O)c(C(=O)O)cc(C3CC3)c12 [Example 27, 8-(4-Aminophenyl)-1-cyclopropyl-9-methyl-4-oxo-4H-quinolizine-3-carboxylic acid] | 0.031 µg/mL (≈ 0.0927 µM) | 0.031 µg/mL (≈ 0.0927 µM) | 0.063 µg/mL (≈ 0.188 µM) | 0.008 µg/mL (≈ 0.0239 µM) | ≤ 0.004 µg/mL | 0.063 µg/mL (≈ 0.188 µM) | ≤ 0.004 µg/mL | 0.008 µg/mL (≈ 0.0239 µM) | ≤ 0.004 µg/mL | ≤ 0.004 µg/mL | 0.25 µg/mL (≈ 0.748 µM) | ≤ 0.004 µg/mL | ≤ 0.004 µg/mL | 0.063 µg/mL (≈ 0.188 µM) | 0.125 µg/mL (≈ 0.374 µM) | 0.031 µg/mL (≈ 0.0927 µM) | 0.031 µg/mL (≈ 0.0927 µM) | 0.125 µg/mL (≈ 0.374 µM) |
| CC(=O)c1ccc(-c2ccn3c(=O)c(C(=O)O)cc(C4CC4)c3c2C)cc1 [Example 28, 8-(4-Acetylphenyl)-1-cyclopropyl-9-methyl-4-oxo-4H-quinolizine-3-carboxylic acid] | 0.125 µg/mL (≈ 0.346 µM) | 0.125 µg/mL (≈ 0.346 µM) | 0.25 µg/mL (≈ 0.692 µM) | 0.25 µg/mL (≈ 0.692 µM) | ≤ 0.004 µg/mL | 0.25 µg/mL (≈ 0.692 µM) | 0.008 µg/mL (≈ 0.0221 µM) | 0.031 µg/mL (≈ 0.0858 µM) | 0.008 µg/mL (≈ 0.0221 µM) | 0.031 µg/mL (≈ 0.0858 µM) | 2 µg/mL (≈ 5.53 µM) | 0.031 µg/mL (≈ 0.0858 µM) | 0.008 µg/mL (≈ 0.0221 µM) | 0.25 µg/mL (≈ 0.692 µM) | 0.25 µg/mL (≈ 0.692 µM) | 0.125 µg/mL (≈ 0.346 µM) | – | 0.25 µg/mL (≈ 0.692 µM) |
| CC(=NO)c1ccc(-c2ccn3c(=O)c(C(=O)O)cc(C4CC4)c3c2C)cc1 [Example 38, 1-Cyclopropyl-8-[4-(1-hydroxyiminoethyl)phenyl]-9-methyl-4-oxo-4H-quinolizine-3-carboxylic acid] | 0.063 µg/mL (≈ 0.167 µM) | 0.125 µg/mL (≈ 0.332 µM) | 0.125 µg/mL (≈ 0.332 µM) | 0.125 µg/mL (≈ 0.332 µM) | ≤ 0.004 µg/mL | 0.125 µg/mL (≈ 0.332 µM) | ≤ 0.004 µg/mL | 0.016 µg/mL (≈ 0.0425 µM) | 0.008 µg/mL (≈ 0.0213 µM) | 0.031 µg/mL (≈ 0.0824 µM) | 2 µg/mL (≈ 5.31 µM) | 0.016 µg/mL (≈ 0.0425 µM) | ≤ 0.004 µg/mL | 0.125 µg/mL (≈ 0.332 µM) | 0.125 µg/mL (≈ 0.332 µM) | 0.063 µg/mL (≈ 0.167 µM) | – | 0.25 µg/mL (≈ 0.664 µM) |
| Cc1c(-c2ccc(N)c(F)c2)ccn2c(=O)c(C(=O)O)cc(C3CC3)c12 [Example 97, 8-(4-amino-3-fluorophenyl)-1-cyclopropyl-9-methyl-4-oxo-4H-quinolizine-3-carboxylic acid] | 0.063 µg/mL (≈ 0.179 µM) | 0.125 µg/mL (≈ 0.355 µM) | 0.25 µg/mL (≈ 0.709 µM) | 0.031 µg/mL (≈ 0.088 µM) | – | 0.063 µg/mL (≈ 0.179 µM) | ≤ 0.004 µg/mL | 0.016 µg/mL (≈ 0.0454 µM) | 0.016 µg/mL (≈ 0.0454 µM) | 0.031 µg/mL (≈ 0.088 µM) | 0.25 µg/mL (≈ 0.709 µM) | 0.031 µg/mL (≈ 0.088 µM) | ≤ 0.004 µg/mL | 0.125 µg/mL (≈ 0.355 µM) | 0.25 µg/mL (≈ 0.709 µM) | 0.031 µg/mL (≈ 0.088 µM) | 0.031 µg/mL (≈ 0.088 µM) | 0.125 µg/mL (≈ 0.355 µM) |
| CCOC(=O)c1cc(C2CC2)c2c(C)c(-c3cc(F)c(CN)s3)ccn2c1=O [Example 111, Ethyl 8-(5-aminomethyl-4-fluorothiophen-2-yl)-1-cyclopropyl-9-methyl-4-oxo-4H-quinolizine-3-carboxylate] | 0.25 µg/mL (≈ 0.624 µM) | 0.063 µg/mL (≈ 0.157 µM) | 0.125 µg/mL (≈ 0.312 µM) | 0.008 µg/mL (≈ 0.02 µM) | – | 0.063 µg/mL (≈ 0.157 µM) | 0.016 µg/mL (≈ 0.04 µM) | 0.031 µg/mL (≈ 0.0774 µM) | 0.016 µg/mL (≈ 0.04 µM) | 0.008 µg/mL (≈ 0.02 µM) | 0.25 µg/mL (≈ 0.624 µM) | 0.031 µg/mL (≈ 0.0774 µM) | 0.031 µg/mL (≈ 0.0774 µM) | 0.25 µg/mL (≈ 0.624 µM) | 0.125 µg/mL (≈ 0.312 µM) | 0.25 µg/mL (≈ 0.624 µM) | 0.125 µg/mL (≈ 0.312 µM) | 0.5 µg/mL (≈ 1.25 µM) |
| Cc1c(-c2ccc(CN)o2)ccn2c(=O)c(C(=O)O)cc(C3CC3)c12 [Example 113, 8-(5-Aminomethylfuran-2-yl)-1-cyclopropyl-9-methyl-4-oxo-4H-quinolizine-3-carboxylic acid] | – | 0.5 µg/mL (≈ 1.48 µM) | 0.5 µg/mL (≈ 1.48 µM) | 0.031 µg/mL (≈ 0.0916 µM) | 0.016 µg/mL (≈ 0.0473 µM) | 0.063 µg/mL (≈ 0.186 µM) | – | – | 0.031 µg/mL (≈ 0.0916 µM) | 0.008 µg/mL (≈ 0.0236 µM) | 1 µg/mL (≈ 2.96 µM) | 0.125 µg/mL (≈ 0.369 µM) | 0.063 µg/mL (≈ 0.186 µM) | 0.25 µg/mL (≈ 0.739 µM) | 0.5 µg/mL (≈ 1.48 µM) | 1 µg/mL (≈ 2.96 µM) | – | 2 µg/mL (≈ 5.91 µM) |
